Measurements taken from patent US8329739B2, “Phenylimidazole compounds” (Otsuka Pharmaceutical Factory, Inc., priority 2009, dated 2012).

Legend:
LPL (lipoprotein lipase) = biological target: T1, LPL (lipoprotein lipase) (Mus musculus, UniProt P11152); experiment: Confirmation test of LPL activation effect in mouse skeletal muscle cells (C2C12 cells); format: cell-based; conditions: 8 hours exposure, vs control group
T1 construct: endogenous in cells; host or cells: C2C12 cells, differentiated
T1 sequence (P11152 28-474): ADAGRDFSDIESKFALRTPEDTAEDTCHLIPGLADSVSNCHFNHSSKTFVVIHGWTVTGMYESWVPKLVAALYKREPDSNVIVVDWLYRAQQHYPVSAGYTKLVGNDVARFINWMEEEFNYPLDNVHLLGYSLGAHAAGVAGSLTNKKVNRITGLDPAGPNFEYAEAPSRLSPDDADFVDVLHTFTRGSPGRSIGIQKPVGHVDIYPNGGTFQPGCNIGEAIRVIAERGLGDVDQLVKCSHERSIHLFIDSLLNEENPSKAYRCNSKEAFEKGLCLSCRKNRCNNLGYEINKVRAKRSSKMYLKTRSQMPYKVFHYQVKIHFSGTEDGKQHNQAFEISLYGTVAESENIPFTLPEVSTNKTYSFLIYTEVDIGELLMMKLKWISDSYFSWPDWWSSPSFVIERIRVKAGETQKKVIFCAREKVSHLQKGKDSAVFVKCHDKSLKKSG
Method: Human skeletal muscle cells (human skeletal muscle myoblasts) or mouse skeletal muscle cells (C2C12 cells) that were seeded onto plates, cultured, and differentiated were exposed to a 0.3% dimethyl sulfoxide-containing culture medium in which the compound of the present invention was dissolved (concentration: 10 μM or 30 μM). The medium was removed 8 hours after exposure, 10 mM of Tris-HCl buffer (150 mM NaCl, 10 μ/mL; containing heparin sodium) was added to the cells, and the cells were incubated at 37° C. in the presence of 5% CO2 for 10 minutes. LPL activity in the supernatant was measured using an LPL activity assay kit (made by Roar Biomedical Inc.). LPL activity was evaluated based on the increase in fluorescence intensity 10 to 70 minutes after mixing the supernatant with the LPL substrate. The mean value of the increase in fluorescence intensity of the cells exposed to a 0.3% dimethyl sulfoxide-containing culture medium […] was used as mean value of the control group. Note that the compounds of Examples 18, 19, 32, 45 and 57 were tested using human skeletal muscle cells, and other compounds were tested using mouse skeletal muscle cells. The rate of increase (%) was calculated from the measured values of LPL activity in the control group and the experimental group, according to the following formula. Rate of increase in LPL activity (%)=[(mean value of the experimental group)−(mean value of the control group)]/(mean value of the control group)×100

## COc1cc(-c2c[nH]c(-c3ccccc3)n2)ccc1OCc1ccc(Cl)cc1 [Example 2]
LPL (lipoprotein lipase); amount of addition 10 μM
  Rate of increase in LPL activity: 13%
LPL (lipoprotein lipase); amount of addition 30 μM
  Rate of increase in LPL activity: 38%
other
  melting point: 87 to 89 °C

## COc1cc(-c2c[nH]c(-c3ccccc3)n2)ccc1OCc1ccc(Br)cc1F.Cl [Example 3]
LPL (lipoprotein lipase); amount of addition 10 μM
  Rate of increase in LPL activity: 43%
LPL (lipoprotein lipase); amount of addition 30 μM
  Rate of increase in LPL activity: 62%
other
  melting point: 224 to 226 °C

## COc1cc(-c2c[nH]c(-c3ccc(Cl)cc3)n2)ccc1OCc1ccccc1 [Example 4]
LPL (lipoprotein lipase); amount of addition 10 μM
  Rate of increase in LPL activity: 31%
LPL (lipoprotein lipase); amount of addition 30 μM
  Rate of increase in LPL activity: 45%
other
  melting point: 228 to 229 °C

## COc1cc(-c2c[nH]c(-c3ccc(C)cc3)n2)ccc1OCc1ccccc1.Cl [Example 5]
LPL (lipoprotein lipase); amount of addition 10 μM
  Rate of increase in LPL activity: 14%
LPL (lipoprotein lipase); amount of addition 30 μM
  Rate of increase in LPL activity: 42%
other
  melting point: 244 to 245 °C

## COc1cc(OCc2ccccc2)ccc1-c1c[nH]c(-c2ccccc2)n1.Cl [Example 7]
LPL (lipoprotein lipase); amount of addition 10 μM
  Rate of increase in LPL activity: 69%
LPL (lipoprotein lipase); amount of addition 30 μM
  Rate of increase in LPL activity: 197%
other
  melting point: 229 to 230 °C

## COc1cc(OCc2ccc(Cl)cc2)ccc1-c1c[nH]c(-c2ccccc2)n1.Cl [Example 10]
LPL (lipoprotein lipase); amount of addition 10 μM
  Rate of increase in LPL activity: 46%
LPL (lipoprotein lipase); amount of addition 30 μM
  Rate of increase in LPL activity: 275%
other
  melting point: 244 to 246 °C

## COc1cc(OCc2ccc(Br)cc2F)ccc1-c1c[nH]c(-c2ccccc2)n1.Cl [Example 11]
LPL (lipoprotein lipase); amount of addition 10 μM
  Rate of increase in LPL activity: 96%
LPL (lipoprotein lipase); amount of addition 30 μM
  Rate of increase in LPL activity: 231%
other
  melting point: 239 to 240 °C

## COc1cc(OCc2ccccc2)ccc1-c1c[nH]c(-c2ccc(C(F)(F)F)cc2)n1 [Example 13]
LPL (lipoprotein lipase); amount of addition 10 μM
  Rate of increase in LPL activity: 46%
LPL (lipoprotein lipase); amount of addition 30 μM
  Rate of increase in LPL activity: 234%
other
  melting point: 231 to 232 °C

## COc1cc(-c2c[nH]c(-c3cc(Cl)cc(Cl)c3)n2)ccc1OCc1ccccc1 [Example 15]
LPL (lipoprotein lipase); amount of addition 10 μM
  Rate of increase in LPL activity: 79%
LPL (lipoprotein lipase); amount of addition 30 μM
  Rate of increase in LPL activity: 97%
other
  melting point: 250 to 251 °C

## COc1cc(-c2c[nH]c(-c3ccc(C)c(F)c3)n2)ccc1OCc1ccccc1.Cl [Example 16]
LPL (lipoprotein lipase); amount of addition 10 μM
  Rate of increase in LPL activity: 54%
LPL (lipoprotein lipase); amount of addition 30 μM
  Rate of increase in LPL activity: 119%
other
  melting point: 236 to 237 °C

## COc1cc(OCc2ccc(C#N)cc2)ccc1-c1c[nH]c(-c2ccc(C(F)(F)F)cc2)n1 [Example 17]
LPL (lipoprotein lipase); amount of addition 10 μM
  Rate of increase in LPL activity: 81%
LPL (lipoprotein lipase); amount of addition 30 μM
  Rate of increase in LPL activity: 143%
other
  melting point: 182 to 184 °C

## COc1cc(OCc2ccccc2)ccc1-c1c[nH]c(-c2ccsc2)n1 [Example 24]
LPL (lipoprotein lipase); amount of addition 10 μM
  Rate of increase in LPL activity: 59%
LPL (lipoprotein lipase); amount of addition 30 μM
  Rate of increase in LPL activity: 77%
other
  melting point: 188 to 192 °C

## COc1cc(-c2c[nH]c(-c3ccoc3)n2)ccc1OCc1ccccc1 [Example 26]
LPL (lipoprotein lipase); amount of addition 10 μM
  Rate of increase in LPL activity: 31%
LPL (lipoprotein lipase); amount of addition 30 μM
  Rate of increase in LPL activity: 51%
other
  melting point: 177 to 179 °C

## COc1cc(-c2c[nH]c(-c3ccc(C(C)(C)C)cc3)n2)ccc1OCc1ccccc1 [Example 28]
LPL (lipoprotein lipase); amount of addition 10 μM
  Rate of increase in LPL activity: 30%
LPL (lipoprotein lipase); amount of addition 30 μM
  Rate of increase in LPL activity: 53%
other
  melting point: 138 to 141 °C

## COc1cc(OCc2ccccc2)ccc1-c1c[nH]c(C(C)C)n1 [Example 30]
LPL (lipoprotein lipase); amount of addition 10 μM
  Rate of increase in LPL activity: 11%
LPL (lipoprotein lipase); amount of addition 30 μM
  Rate of increase in LPL activity: 47%
other
  melting point: 154 to 156 °C

## COc1cc(-c2c[nH]c(-c3cccs3)n2)ccc1OCc1ccc(Cl)cc1 [Example 31]
LPL (lipoprotein lipase); amount of addition 10 μM
  Rate of increase in LPL activity: 10%
LPL (lipoprotein lipase); amount of addition 30 μM
  Rate of increase in LPL activity: 38%
other
  melting point: 197 to 200 °C

## COc1cc(-c2c[nH]c(-c3cc(Cl)cc(Cl)c3)n2)ccc1OCc1ccc(Cl)cc1 [Example 33]
LPL (lipoprotein lipase); amount of addition 10 μM
  Rate of increase in LPL activity: 60%
LPL (lipoprotein lipase); amount of addition 30 μM
  Rate of increase in LPL activity: 84%
other
  melting point: 142 to 145 °C

## COc1cc(-c2c[nH]c(-c3ccc(F)cc3)n2)ccc1OCc1ccccc1 [Example 36]
LPL (lipoprotein lipase); amount of addition 10 μM
  Rate of increase in LPL activity: 6%
LPL (lipoprotein lipase); amount of addition 30 μM
  Rate of increase in LPL activity: 113%
other
  melting point: 214 to 216 °C

## COC(=O)c1ccc(-c2nc(-c3ccc(OCc4ccccc4)c(OC)c3)c[nH]2)cc1.Cl [Example 38]
LPL (lipoprotein lipase); amount of addition 10 μM
  Rate of increase in LPL activity: 35%
LPL (lipoprotein lipase); amount of addition 30 μM
  Rate of increase in LPL activity: 100%
other
  melting point: 222 to 227 °C

## COc1cc(OCc2ccccc2)ccc1-c1c[nH]c(-c2ccc(F)cc2)n1.Cl [Example 42]
LPL (lipoprotein lipase); amount of addition 10 μM
  Rate of increase in LPL activity: 47%
LPL (lipoprotein lipase); amount of addition 30 μM
  Rate of increase in LPL activity: 131%
other
  melting point: 217 to 220 °C

## COc1cc(OCc2ccc(Cl)cc2)ccc1-c1c[nH]c(-c2ccc(F)cc2)n1 [Example 43]
LPL (lipoprotein lipase); amount of addition 10 μM
  Rate of increase in LPL activity: 64%
LPL (lipoprotein lipase); amount of addition 30 μM
  Rate of increase in LPL activity: 157%
other
  melting point: 174 to 176 °C

## COc1cc(-c2c[nH]c(-c3cccc(F)c3)n2)ccc1OCc1ccccc1.Cl [Example 46]
LPL (lipoprotein lipase); amount of addition 10 μM
  Rate of increase in LPL activity: 49%
LPL (lipoprotein lipase); amount of addition 30 μM
  Rate of increase in LPL activity: 88%
other
  melting point: 212 to 215 °C

## COc1cc(-c2c[nH]c(-c3ccc(F)c(F)c3)n2)ccc1OCc1ccccc1.Cl [Example 47]
LPL (lipoprotein lipase); amount of addition 10 μM
  Rate of increase in LPL activity: 38%
LPL (lipoprotein lipase); amount of addition 30 μM
  Rate of increase in LPL activity: 120%
other
  melting point: 226 to 227 °C

## COc1cc(-c2c[nH]c(-c3ccc(F)cc3)n2)ccc1OCc1ccc(Cl)cc1.Cl [Example 48]
LPL (lipoprotein lipase); amount of addition 10 μM
  Rate of increase in LPL activity: 18%
LPL (lipoprotein lipase); amount of addition 30 μM
  Rate of increase in LPL activity: 96%
other
  melting point: 243 to 245 °C

## COc1cc(-c2nc(-c3ccc(F)cc3)[nH]c2C)ccc1OCc1ccccc1 [Example 49]
LPL (lipoprotein lipase); amount of addition 10 μM
  Rate of increase in LPL activity: 47%
LPL (lipoprotein lipase); amount of addition 30 μM
  Rate of increase in LPL activity: 147%
other
  melting point: 214 to 218 °C

## COc1cc(-c2c[nH]c(-c3ccc(F)cc3)n2)ccc1OCc1ccccc1C#N [Example 50]
LPL (lipoprotein lipase); amount of addition 10 μM
  Rate of increase in LPL activity: 20%
LPL (lipoprotein lipase); amount of addition 30 μM
  Rate of increase in LPL activity: 70%
other
  melting point: 204 to 206 °C

## COc1cc(-c2c[nH]c(-c3cccc(C(F)(F)F)c3)n2)ccc1OCc1ccc(Br)cc1F [Example 51]
LPL (lipoprotein lipase); amount of addition 10 μM
  Rate of increase in LPL activity: 16%
LPL (lipoprotein lipase); amount of addition 30 μM
  Rate of increase in LPL activity: 115%
other
  melting point: 173 to 174 °C

## COc1cc(OCc2ccccc2)ccc1-c1c[nH]c(-c2cccc(F)c2)n1.Cl [Example 54]
LPL (lipoprotein lipase); amount of addition 10 μM
  Rate of increase in LPL activity: 18%
LPL (lipoprotein lipase); amount of addition 30 μM
  Rate of increase in LPL activity: 87%
other
  melting point: 231 to 235 °C

## COc1cc(-c2c[nH]c(-c3ccc(C(F)(F)F)cc3)n2)ccc1OCc1ccc(C#N)cc1 [Example 55]
LPL (lipoprotein lipase); amount of addition 10 μM
  Rate of increase in LPL activity: 49%
LPL (lipoprotein lipase); amount of addition 30 μM
  Rate of increase in LPL activity: 94%
other
  melting point: 231 to 233 °C

## COc1cc(-c2c[nH]c(-c3ccc(F)cc3)n2)ccc1OCc1ccc(C#N)cc1 [Example 56]
LPL (lipoprotein lipase); amount of addition 10 μM
  Rate of increase in LPL activity: 38%
LPL (lipoprotein lipase); amount of addition 30 μM
  Rate of increase in LPL activity: 62%
other
  melting point: 224 to 226 °C

## COc1cc(OCc2ccc(Br)cc2F)ccc1-c1c[nH]c(-c2cccc(C(F)(F)F)c2)n1.Cl [Example 58]
LPL (lipoprotein lipase); amount of addition 10 μM
  Rate of increase in LPL activity: 45%
LPL (lipoprotein lipase); amount of addition 30 μM
  Rate of increase in LPL activity: 150%
other
  melting point: > 250 °C

## COc1cc(-c2c[nH]c(-c3cccc(F)c3)n2)ccc1OCc1ccc(C#N)cc1 [Example 59]
LPL (lipoprotein lipase); amount of addition 10 μM
  Rate of increase in LPL activity: 22%
LPL (lipoprotein lipase); amount of addition 30 μM
  Rate of increase in LPL activity: 73%
other
  melting point: 205 to 209 °C

## COc1cc(-c2c[nH]c(-c3ccc(F)cc3)n2)ccc1OCc1cccc(C#N)c1.Cl [Example 61]
LPL (lipoprotein lipase); amount of addition 10 μM
  Rate of increase in LPL activity: 53%
LPL (lipoprotein lipase); amount of addition 30 μM
  Rate of increase in LPL activity: 92%
other
  melting point: 242 to 244 °C
